Read-outs that look alike come from different tables or passages of the source.
Columns and labels:
[1] = target: T1, S. aureus gyrase (Staphylococcus aureus, UniProt P0A0K8+P20831)
[2] = target: T1, S. aureus gyrase; assay: DNA cleavage competition assay, gepotidacin vs moxifloxacin; format: biochemical; details: 100 μM gepotidacin plus 25 μM moxifloxacin
[3] = tested on: negatively supercoiled pBR322 DNA; assay: DNA cleavage control without gyrase; details: 200 μM gepotidacin, 3 h incubation, no gyrase
[4] = target: S. aureus gyrase-DNA cleavage complexes (Staphylococcus aureus, UniProt P0A0K8+P20831); assay: Stability; details: 5 μM gepotidacin, 20-fold dilution into buffer lacking divalent metal ion
Sequence of S. aureus gyrase-DNA cleavage complexes (P20831 whole entry): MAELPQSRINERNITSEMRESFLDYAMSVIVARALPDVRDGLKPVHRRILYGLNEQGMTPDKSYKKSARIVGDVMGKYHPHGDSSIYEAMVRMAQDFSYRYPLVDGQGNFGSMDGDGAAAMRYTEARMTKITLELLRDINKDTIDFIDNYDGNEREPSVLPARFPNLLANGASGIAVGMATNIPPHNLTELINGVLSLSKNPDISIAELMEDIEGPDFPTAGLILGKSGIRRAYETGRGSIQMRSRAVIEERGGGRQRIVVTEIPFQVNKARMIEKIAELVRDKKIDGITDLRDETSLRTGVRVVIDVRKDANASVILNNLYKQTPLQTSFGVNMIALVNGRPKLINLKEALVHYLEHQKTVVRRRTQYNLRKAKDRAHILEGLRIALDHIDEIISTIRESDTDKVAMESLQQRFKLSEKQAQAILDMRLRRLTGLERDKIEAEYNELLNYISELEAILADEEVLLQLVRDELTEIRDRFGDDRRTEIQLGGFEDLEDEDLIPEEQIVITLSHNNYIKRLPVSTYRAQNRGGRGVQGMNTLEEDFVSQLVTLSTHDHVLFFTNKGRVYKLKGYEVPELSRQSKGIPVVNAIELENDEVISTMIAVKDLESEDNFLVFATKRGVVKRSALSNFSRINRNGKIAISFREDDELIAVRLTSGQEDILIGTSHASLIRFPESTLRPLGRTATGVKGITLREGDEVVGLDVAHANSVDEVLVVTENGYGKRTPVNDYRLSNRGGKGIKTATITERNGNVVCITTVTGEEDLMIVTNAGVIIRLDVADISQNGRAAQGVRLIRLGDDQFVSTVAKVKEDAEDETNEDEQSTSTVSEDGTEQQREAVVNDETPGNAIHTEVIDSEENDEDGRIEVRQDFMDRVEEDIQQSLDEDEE
Sequence of S. aureus gyrase-DNA cleavage complexes (P0A0K8 whole entry): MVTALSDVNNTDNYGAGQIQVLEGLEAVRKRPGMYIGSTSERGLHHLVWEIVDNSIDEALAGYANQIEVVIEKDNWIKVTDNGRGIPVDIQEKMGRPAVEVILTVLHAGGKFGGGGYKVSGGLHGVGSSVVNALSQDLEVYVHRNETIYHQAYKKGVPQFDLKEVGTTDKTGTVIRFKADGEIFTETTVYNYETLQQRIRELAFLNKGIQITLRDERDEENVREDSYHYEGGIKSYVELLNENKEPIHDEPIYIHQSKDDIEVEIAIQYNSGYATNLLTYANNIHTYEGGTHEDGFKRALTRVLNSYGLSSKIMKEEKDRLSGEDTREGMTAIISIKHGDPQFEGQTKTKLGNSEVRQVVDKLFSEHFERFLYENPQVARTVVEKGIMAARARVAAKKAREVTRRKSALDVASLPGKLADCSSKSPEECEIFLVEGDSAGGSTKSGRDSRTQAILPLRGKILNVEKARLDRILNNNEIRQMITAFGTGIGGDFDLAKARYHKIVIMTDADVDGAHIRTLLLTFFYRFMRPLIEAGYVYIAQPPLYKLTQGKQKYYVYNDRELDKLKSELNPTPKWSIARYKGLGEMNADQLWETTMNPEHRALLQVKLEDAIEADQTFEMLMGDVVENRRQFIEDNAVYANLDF

T1 sequence (P0A0K8 whole entry): as above
T1 sequence (P20831 whole entry): as the sequence (P20831 whole entry) above

Row | SMILES | fall in potency with positively vs negatively supercoiled substrates ([1]; double-stranded breaks) | drop in levels of moxifloxacin-induced double-stranded breaks [2] | DNA cleavage when gyrase was left out [3] | type of DNA breaks at high concentration ([1]; 200 μM, time course 6 times longer than standard) | gyrase-mediated double-stranded DNA cleavage ([1]; 1.5 mM ATP) | type of DNA breaks created ([1]; 5 or 200 μM, negatively supercoiled DNA) | effect on double-stranded DNA cleavage in the presence of Ca2+ ([1]; MgCl2 replaced by CaCl2, increasing gepotidacin concentrations) | gyrase-mediated double-stranded DNA breaks ([1]; high gepotidacin concentration, long cleavage times, or presence of ATP) | levels of single-stranded breaks, positively vs negatively supercoiled plasmid ([1]; lower with positively supercoiled plasmid) | single-stranded DNA breaks, share of the initial substrate ([1]; negatively supercoiled plasmid, low micromolar concentrations) | gyrase-mediated double-stranded DNA breaks ([1]; positively supercoiled DNA) | stability of gyrase-DNA cleavage complexes [4]
1 | COc1c(N2C[C@@H]3CCCN[C@@H]3C2)c(F)cc2c(=O)c(C(=O)O)cn(C3CC3)c12 [moxifloxacin, reference compound] | ~ 8 fold |  |  |  |  |  |  |  |  |  |  | 
2 | O=c1ccc2ncc(=O)n3c2n1C[C@H]3CN1CCC(NCc2cc3c(cn2)OCCC3)CC1 [Gepotidacin] |  | ~ 95% | no DNA cleavage was observed | only single-stranded breaks were observed | no double-stranded DNA cleavage was observed | all of the breaks created in the presence of gepotidacin were single-stranded | coordinate decrease in levels of double-stranded DNA cleavage | No double-stranded breaks were observed | ~ 2 fold | more than 30% | no double-stranded breaks were observed | > 4 h
